Data on eight compounds can be found in ChEMBL document CHEMBL1201862, “PubChem BioAssay data set” (2004).

Some test systems named below: 786-0; A498; ACHN; EKVX; HCT-116; IGROV-1; NCI/ADR-RES; OVCAR-4; OVCAR-5; OVCAR-8; RXF 393; SF-268; SNB-75; T47D; U-251; UACC-62; CAKI-1; CCRF-CEM; Malme-3M; PC-3.
What all share (experiment): growth of human tumour cells (NCI), 48 h

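A five-concentration, 48-hour dose response in 96-well plates underlies each endpoint, interpolated linearly between surrounding concentrations. The concentration for 50% growth inhibition is given as GI50.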 Calls of active or inactive are those of the source. Rule as the data show it: active = GI50 up to about 1.1 µM and inactive = higher. A value given as a limit tells only on which side of the number the result lay.

As to `O=C(Cc1ccccc1)NN1C(=O)/C(=C\c2ccccc2)S/C1=N\c1ccccc1`, the GI50 with 786-0, in the assay with A498, in the assay on ACHN, in the assay on EKVX, with HCT-116 and in the assay on IGROV-1 was > 100 µM (inactive) in each case. Further, the GI50 in the assay on NCI/ADR-RES, in the assay on OVCAR-4, in the assay with OVCAR-5, in the assay with OVCAR-8, in the assay on RXF 393 and with SF-268 was > 100 µM (inactive) each time. The GI50 in the assay with SNB-75, with T47D, in the assay on U-251 and in the assay on UACC-62 was > 100 µM (inactive) throughout.

On to `C/C(=N\Nc1nc2ccccc2o1)c1cc(C)ncn1`, for which the GI50 in the assay with 786-0 was < 0.0275 µM (active); in the assay on A498, > 100 µM (inactive); in the assay on ACHN, < 0.0189 µM (active); with CAKI-1, 0.0129 µM (active); in the assay with CCRF-CEM it was < 0.01 µM (active); with EKVX, < 0.0153 µM (active). Also, the GI50 is < 0.0191 µM (active) in the assay on HCT-116; 0.0275 µM (active) in the assay with IGROV-1; 0.0327 µM (active) in the assay with Malme-3M; 0.0242 µM (active) with NCI/ADR-RES; 0.136 µM (active) with OVCAR-4; 0.618 µM (active) in the assay with OVCAR-5. Moreover, the GI50 with OVCAR-8 was 0.0173 µM (active); in the assay with PC-3, 0.0383 µM (active); in the assay with RXF 393, 1.34 µM (inactive); in the assay with SF-268, 0.031 µM (active); with SNB-75 it was 0.151 µM (active); in the assay with U-251, 0.128 µM (active). Further, in the assay with UACC-62, the GI50 is 0.0867 µM (active).

In the case of `C/C=C\C(CC(=O)NCCC1CN(C(=O)OCc2ccccc2)c2ccccc21)CC(=O)OC` (stereo not given), the GI50 with 786-0, in the assay on A498, with ACHN, in the assay with CAKI-1, in the assay on CCRF-CEM and in the assay with EKVX was > 100 µM (inactive) throughout. The GI50 with HCT-116, with IGROV-1, with Malme-3M, in the assay with NCI/ADR-RES, in the assay on OVCAR-4 and in the assay on OVCAR-5 was > 100 µM (inactive) in each case. Further, the GI50 with OVCAR-8 was > 100 µM (inactive); with PC-3, 99.8 µM (inactive); in the assay on RXF 393 it was > 100 µM (inactive); in the assay on SF-268, > 100 µM (inactive); with SNB-75, > 100 µM (inactive); with U-251, > 100 µM (inactive). In addition, the GI50 with UACC-62 is > 100 µM (inactive).

Consider `O=c1[nH]c(=O)n(COCCO)c2ccsc12`, for which the GI50 in the assay on 786-0, in the assay with A498, in the assay on ACHN, in the assay on CAKI-1, in the assay on CCRF-CEM and in the assay on EKVX was > 100 µM (inactive) in each case. Also, the GI50 in the assay with HCT-116, in the assay on IGROV-1, with Malme-3M, in the assay with NCI/ADR-RES, in the assay with OVCAR-4 and in the assay with OVCAR-5 was > 100 µM (inactive) throughout. Also, the GI50 in the assay on OVCAR-8, in the assay with PC-3, in the assay with RXF 393, in the assay on SF-268, in the assay on SNB-75 and in the assay with U-251 was > 100 µM (inactive) in each case.

`COC(=O)[C@H](Cc1ccc(OC(C)(C)C)cc1)N[C@H](C)C(=O)N[C@@H](Cc1ccccc1)C(=O)OCc1ccccc1`: the GI50 was 54.3 µM (inactive) with 786-0; > 100 µM (inactive) with A498; 93.1 µM (inactive) in the assay with ACHN; > 100 µM (inactive) with CAKI-1; 40.2 µM (inactive) in the assay on CCRF-CEM; > 100 µM (inactive) in the assay on EKVX. The GI50 in the assay with HCT-116 was 35.6 µM (inactive); in the assay with IGROV-1 it was > 100 µM (inactive); with Malme-3M, > 100 µM (inactive); in the assay on NCI/ADR-RES, > 100 µM (inactive); with OVCAR-4, > 100 µM (inactive); in the assay on OVCAR-5, > 100 µM (inactive). Also, the GI50 in the assay on OVCAR-8 is 52.2 µM (inactive); with PC-3, 61.7 µM (inactive); in the assay with RXF 393, > 100 µM (inactive); in the assay with SF-268 it was > 100 µM (inactive); with SNB-75, 57.1 µM (inactive); with U-251, > 100 µM (inactive). Further, the GI50 in the assay on UACC-62 is > 100 µM (inactive).

Regarding `Cc1ccc(C(=O)OC(C)C)cc1/N=N/N(C)C`, the GI50 with 786-0 is > 100 µM (inactive); in the assay with ACHN it was > 88.5 µM (inactive); in the assay on CAKI-1 it was 83 µM (inactive); in the assay on CCRF-CEM, 75.2 µM (inactive); in the assay with EKVX, > 100 µM (inactive); in the assay with HCT-116, > 67.9 µM (inactive). Further, the GI50 in the assay on IGROV-1 was > 100 µM (inactive); in the assay on Malme-3M it was > 100 µM (inactive); with NCI/ADR-RES, 98.4 µM (inactive); with OVCAR-4 it was > 75.2 µM (inactive); in the assay on OVCAR-5 it was > 100 µM (inactive); in the assay on OVCAR-8, > 100 µM (inactive). Further, the GI50 is 99.1 µM (inactive) with PC-3; > 68.7 µM (inactive) with SF-268; 44.5 µM (inactive) with T47D; > 71.4 µM (inactive) with U-251; > 96.2 µM (inactive) in the assay with UACC-62.

As for `Cc1nnc(Nc2ccccc2)o1`, the GI50 in the assay with 786-0, in the assay with ACHN, in the assay with CAKI-1, with CCRF-CEM, in the assay on EKVX and with HCT-116 was > 100 µM (inactive) each time. Moreover, the GI50 with Malme-3M, with NCI/ADR-RES, with OVCAR-4, in the assay with OVCAR-5, in the assay with OVCAR-8 and in the assay with PC-3 was > 100 µM (inactive) throughout. Moreover, the GI50 in the assay with RXF 393, in the assay on SF-268, in the assay on SNB-75, in the assay on T47D, with U-251 and in the assay with UACC-62 was > 100 µM (inactive) each time.

With `COc1cc(Nc2nc3cc(C(F)(F)F)ccc3nc2C(=O)O)cc(OC)c1OC`, the GI50 with 786-0 is 52.8 µM (inactive); in the assay on A498 it was 77.8 µM (inactive); in the assay on ACHN it was 65.6 µM (inactive); in the assay with CAKI-1, 30.7 µM (inactive); in the assay with CCRF-CEM it was 29.4 µM (inactive); in the assay with EKVX it was 33.3 µM (inactive). For the same compound, the GI50 in the assay with HCT-116 is 32.7 µM (inactive); in the assay with IGROV-1, 66.1 µM (inactive); in the assay on Malme-3M, 54.1 µM (inactive); in the assay with NCI/ADR-RES, 41.7 µM (inactive); with OVCAR-4 it was > 100 µM (inactive); with OVCAR-5, > 100 µM (inactive). Also, the GI50 with OVCAR-8 is 43.8 µM (inactive); in the assay with RXF 393, 28.9 µM (inactive); in the assay with SF-268 it was 43.9 µM (inactive); with SNB-75, 10.6 µM (inactive); in the assay with T47D, 22.5 µM (inactive); with U-251, 36.6 µM (inactive). The GI50 in the assay on UACC-62 was 39.8 µM (inactive).
